# Reference: ChEMBL document CHEMBL1201862, “PubChem BioAssay data set” (2004)
#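 Test compounds were applied to cells in 96-well plates for 48 hours at 5 doses. GI50 is the concentration that inhibits growth by half.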 Calls of active or inactive are those of the source. No stated cut-off is given here; in the data, active = GI50 up to about 1.1 µM and inactive = higher.
# Columns and labels:
# Experiment in all cases: NCI tumour cell line growth inhibition, 48 h
# [1] = test system: UACC-257
# [2] = test system: SK-MEL-2
# [3] = test system: NCI-H226
# [4] = test system: ACHN
# [5] = test system: SF-295
# [6] = test system: MDA-N
# [7] = test system: LOX IMVI
# [8] = test system: SK-MEL-28
# [9] = test system: COLO 205
# [10] = test system: SF-539
# [11] = test system: SN12C
# [12] = test system: MOLT-4
# [13] = test system: CCRF-CEM
# [14] = test system: NCI-H522
# [15] = test system: RXF 393
# [16] = test system: SF-268
# [17] = test system: TK-10
# [18] = test system: OVCAR-3
# [19] = test system: SR
# [20] = test system: HCC 2998
# [21] = test system: 786-0
# [22] = test system: IGROV-1
# [23] = test system: MCF7
# [24] = test system: OVCAR-8
# [25] = test system: NCI/ADR-RES
# [26] = test system: M14
# [27] = test system: DU-145
# [28] = test system: SNB-75
# [29] = test system: A498
# [30] = test system: HT-29
# [31] = test system: NCI-H460
# [32] = test system: K562
# [33] = test system: UO-31
# [34] = test system: SK-MEL-5
# [35] = test system: NCI-H23
# [36] = test system: Malme-3M
# [37] = test system: HCT-15
# [38] = test system: HL-60
# [39] = test system: SK-OV-3
# [40] = test system: T47D
# [41] = test system: MDA-MB-231
# [42] = test system: RPMI-8226
# [43] = test system: KM12
# [44] = test system: U-251
# [45] = test system: MDA-MB-435
# [46] = test system: OVCAR-4
# [47] = test system: CAKI-1
# [48] = test system: HOP-62
# [49] = test system: SW-620
# [50] = test system: PC-3
# [51] = test system: OVCAR-5
# [52] = test system: EKVX
# [53] = test system: Hs-578T
# [54] = test system: UACC-62
# [55] = test system: HCT-116
# [56] = test system: SNB-19
# [57] = test system: A549
# [58] = test system: BT-549
# [59] = test system: HOP-92
compound,measurement,setting,value
COc1ccccc1N/C(=C\C(=O)C(=O)NC12CC3CC(CC(C3)C1)C2)c1ccccc1,GI50,[1],9.46 µM (inactive)
same,GI50,[2],> 10 µM (inactive)
same,GI50,[3],> 10 µM (inactive)
same,GI50,[4],> 10 µM (inactive)
same,GI50,[5],> 10 µM (inactive)
same,GI50,[6],> 10 µM (inactive)
same,GI50,[7],> 10 µM (inactive)
same,GI50,[8],> 10 µM (inactive)
same,GI50,[9],> 10 µM (inactive)
same,GI50,[10],> 10 µM (inactive)
same,GI50,[11],> 10 µM (inactive)
same,GI50,[12],> 10 µM (inactive)
same,GI50,[13],> 10 µM (inactive)
same,GI50,[14],> 10 µM (inactive)
same,GI50,[15],> 10 µM (inactive)
same,GI50,[16],> 10 µM (inactive)
same,GI50,[17],> 10 µM (inactive)
same,GI50,[18],5.31 µM (inactive)
same,GI50,[19],> 10 µM (inactive)
same,GI50,[20],> 10 µM (inactive)
same,GI50,[21],> 10 µM (inactive)
same,GI50,[22],> 10 µM (inactive)
same,GI50,[23],> 10 µM (inactive)
same,GI50,[24],> 10 µM (inactive)
same,GI50,[25],> 10 µM (inactive)
same,GI50,[26],> 10 µM (inactive)
same,GI50,[27],> 10 µM (inactive)
same,GI50,[28],> 10 µM (inactive)
same,GI50,[29],> 10 µM (inactive)
same,GI50,[30],> 10 µM (inactive)
same,GI50,[31],> 10 µM (inactive)
same,GI50,[32],> 10 µM (inactive)
same,GI50,[33],7.73 µM (inactive)
same,GI50,[34],> 10 µM (inactive)
same,GI50,[35],> 10 µM (inactive)
same,GI50,[36],3.36 µM (inactive)
same,GI50,[37],> 10 µM
same,GI50,[38],> 10 µM (inactive)
same,GI50,[39],> 10 µM (inactive)
same,GI50,[40],> 10 µM (inactive)
same,GI50,[41],> 10 µM (inactive)
same,GI50,[42],> 10 µM (inactive)
same,GI50,[43],> 10 µM (inactive)
same,GI50,[44],> 10 µM (inactive)
same,GI50,[45],7.21 µM (inactive)
same,GI50,[46],9.82 µM (inactive)
same,GI50,[47],> 10 µM (inactive)
same,GI50,[48],> 10 µM (inactive)
same,GI50,[49],> 10 µM (inactive)
same,GI50,[50],7.55 µM (inactive)
same,GI50,[51],> 10 µM (inactive)
same,GI50,[52],> 10 µM (inactive)
same,GI50,[53],> 10 µM (inactive)
Cc1sc2nc3n(c(=O)c2c1C)N=CN(c1ccccc1)C3,GI50,[1],> 100 µM (inactive)
same,GI50,[2],> 100 µM (inactive)
same,GI50,[54],> 100 µM (inactive)
same,GI50,[3],> 100 µM (inactive)
same,GI50,[4],59.3 µM (inactive)
same,GI50,[5],84.9 µM (inactive)
same,GI50,[6],> 100 µM (inactive)
same,GI50,[55],> 100 µM (inactive)
same,GI50,[7],> 100 µM (inactive)
same,GI50,[8],> 100 µM (inactive)
same,GI50,[9],> 100 µM (inactive)
same,GI50,[11],> 100 µM (inactive)
same,GI50,[56],35.5 µM (inactive)
same,GI50,[12],> 100 µM (inactive)
same,GI50,[13],> 100 µM (inactive)
same,GI50,[14],38.5 µM (inactive)
same,GI50,[15],37.1 µM (inactive)
same,GI50,[16],23.4 µM (inactive)
same,GI50,[17],> 100 µM (inactive)
same,GI50,[18],19.4 µM (inactive)
same,GI50,[19],> 100 µM (inactive)
same,GI50,[20],60.5 µM (inactive)
same,GI50,[21],15.8 µM (inactive)
same,GI50,[57],> 100 µM (inactive)
same,GI50,[22],> 100 µM (inactive)
same,GI50,[23],> 100 µM (inactive)
same,GI50,[24],68.9 µM (inactive)
same,GI50,[25],> 100 µM (inactive)
same,GI50,[26],> 100 µM (inactive)
same,GI50,[27],> 100 µM (inactive)
same,GI50,[28],35.9 µM (inactive)
same,GI50,[29],> 100 µM (inactive)
same,GI50,[30],> 100 µM (inactive)
same,GI50,[31],> 100 µM (inactive)
same,GI50,[32],> 100 µM (inactive)
same,GI50,[33],> 100 µM (inactive)
same,GI50,[34],> 100 µM (inactive)
same,GI50,[35],> 100 µM (inactive)
same,GI50,[36],32 µM (inactive)
same,GI50,[37],> 100 µM
same,GI50,[39],> 100 µM (inactive)
same,GI50,[40],79.8 µM (inactive)
same,GI50,[41],68.1 µM (inactive)
same,GI50,[42],> 100 µM (inactive)
same,GI50,[43],> 100 µM (inactive)
same,GI50,[44],52.4 µM (inactive)
same,GI50,[45],> 100 µM (inactive)
same,GI50,[46],30.1 µM (inactive)
same,GI50,[47],36 µM (inactive)
same,GI50,[58],> 100 µM (inactive)
same,GI50,[48],20.4 µM (inactive)
same,GI50,[49],> 100 µM (inactive)
same,GI50,[59],23.7 µM (inactive)
same,GI50,[50],> 100 µM (inactive)
same,GI50,[51],> 100 µM (inactive)
same,GI50,[52],> 100 µM (inactive)
O=CCC1CCCCC1,GI50,[1],> 100 µM (inactive)
same,GI50,[2],> 100 µM (inactive)
same,GI50,[3],> 100 µM (inactive)
same,GI50,[4],> 100 µM (inactive)
same,GI50,[5],> 100 µM (inactive)
same,GI50,[6],> 100 µM (inactive)
same,GI50,[55],> 100 µM (inactive)
same,GI50,[7],> 100 µM (inactive)
same,GI50,[8],> 100 µM (inactive)
same,GI50,[9],> 100 µM (inactive)
same,GI50,[10],> 100 µM (inactive)
same,GI50,[11],> 100 µM (inactive)
same,GI50,[56],> 100 µM (inactive)
same,GI50,[12],> 100 µM (inactive)
same,GI50,[14],> 100 µM (inactive)
same,GI50,[15],> 100 µM (inactive)
same,GI50,[16],> 100 µM (inactive)
same,GI50,[18],> 100 µM (inactive)
same,GI50,[21],> 100 µM (inactive)
same,GI50,[57],> 100 µM (inactive)
same,GI50,[22],> 100 µM (inactive)
same,GI50,[25],> 100 µM (inactive)
same,GI50,[26],> 100 µM (inactive)
same,GI50,[28],> 100 µM (inactive)
same,GI50,[29],> 100 µM (inactive)
same,GI50,[31],> 100 µM (inactive)
same,GI50,[32],> 100 µM (inactive)
same,GI50,[33],> 100 µM (inactive)
same,GI50,[34],> 100 µM (inactive)
same,GI50,[35],> 100 µM (inactive)
same,GI50,[36],> 100 µM (inactive)
same,GI50,[37],> 100 µM
same,GI50,[39],> 100 µM (inactive)
same,GI50,[40],> 100 µM (inactive)
same,GI50,[41],> 100 µM (inactive)
same,GI50,[42],> 100 µM (inactive)
same,GI50,[43],88.7 µM (inactive)
same,GI50,[45],> 100 µM (inactive)
same,GI50,[46],> 100 µM (inactive)
same,GI50,[47],> 100 µM (inactive)
same,GI50,[58],> 100 µM (inactive)
same,GI50,[48],> 100 µM (inactive)
same,GI50,[49],> 100 µM (inactive)
same,GI50,[59],> 100 µM (inactive)
same,GI50,[50],> 100 µM (inactive)
same,GI50,[51],> 100 µM (inactive)
same,GI50,[52],> 100 µM (inactive)
